Experiments:
Format in all cases: in vivo
[1] = tested on: Amaranthus retoflexus (AMARE); assay: Post-emergence biological efficacy, glasshouse pot test; conditions: Amaranthus retroflexus, 312 h
How it was run: (§1)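 Plants were sown in standard soil and grown 8 days in a glasshouse (24/16° C. day/night, 14 hours light, 65% humidity), then sprayed post-emergence at 1000 or 250 g/ha from acetone/water (50:50) with 0.5% Tween 20. Damage was scored visually after 13 days (0 = none, 100 = total).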

[2] = tested on: Ipomea hederaceae (IPOHE); assay: as above; conditions: Ipomoea hederacea, 312 h
How it was run: as §1

Setaria faberi (SETFA) [3] = assay: as above; conditions: 312 h
How it was run: as §1

[4] = tested on: Echinochloa crus-galli (ECHCG); assay: as above; conditions: 312 h
How it was run: as §1

Solanum nigrum (SOLNI) [5] = assay: as above; conditions: 312 h
How it was run: as §1

[6] = tested on: Alopecurus myosuroides (ALOMY); assay: as above; conditions: 312 h
How it was run: as §1

[7] = tested on: Amaranthus retoflexus (AMARE); assay: Pre-emergence biological efficacy, glasshouse pot test; conditions: Amaranthus retroflexus, 312 h
How it was run: (§2)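 Compound was applied as a spray one day after sowing, at a final dose of 1000 or 250 g/ha. Plants grew under 14 h light, 24/16 °C and 65% humidity, and injury was assessed on day 13 on a 0–100 scale.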

[8] = tested on: Ipomea hederaceae (IPOHE); assay: as above; conditions: Ipomoea hederacea, 312 h
How it was run: as §2

Setaria faberi (SETFA) [9] = assay: as above; conditions: 312 h
How it was run: as §2

[10] = tested on: Echinochloa crus-galli (ECHCG); assay: as above; conditions: 312 h
How it was run: as §2

Solanum nigrum (SOLNI) [11] = assay: as above; conditions: 312 h
How it was run: as §2

[12] = tested on: Alopecurus myosuroides (ALOMY); assay: as above; conditions: 312 h
How it was run: as §2

[13] = post-emergence, 1,000 g/ha, evaluated after 13 days (100=total damage; 0=no damage), read-out: Percentage damage caused to weed species, AMARE
[14] = post-emergence, 1,000 g/ha, evaluated after 13 days (100=total damage; 0=no damage), read-out: Percentage damage caused to weed species, IPOHE
[15] = post-emergence, 1,000 g/ha, evaluated after 13 days (100=total damage; 0=no damage), read-out: Percentage damage caused to weed species, SETFA
[16] = post-emergence, 1,000 g/ha, evaluated after 13 days (100=total damage; 0=no damage), read-out: Percentage damage caused to weed species, ECHCG
[17] = post-emergence, 1,000 g/ha, evaluated after 13 days (100=total damage; 0=no damage), read-out: Percentage damage caused to weed species, SOLNI
[18] = post-emergence, 1,000 g/ha, evaluated after 13 days (100=total damage; 0=no damage), read-out: Percentage damage caused to weed species, ALOMY
[19] = pre-emergence, 1,000 g/ha, evaluated after 13 days (100=total damage; 0=no damage), read-out: Percentage damage AMARE
[20] = pre-emergence, 1,000 g/ha, evaluated after 13 days (100=total damage; 0=no damage), read-out: Percentage damage IPOHE
[21] = pre-emergence, 1,000 g/ha, evaluated after 13 days (100=total damage; 0=no damage), read-out: Percentage damage SETFA
[22] = pre-emergence, 1,000 g/ha, evaluated after 13 days (100=total damage; 0=no damage), read-out: Percentage damage ECHCG
[23] = pre-emergence, 1,000 g/ha, evaluated after 13 days (100=total damage; 0=no damage), read-out: Percentage damage SOLNI
[24] = pre-emergence, 1,000 g/ha, evaluated after 13 days (100=total damage; 0=no damage), read-out: Percentage damage ALOMY

Row | SMILES | pest or weed control at 1000 g/ha [1, 13] [%] | pest or weed control at 1000 g/ha [2, 14] [%] | pest or weed control at 1000 g/ha (Setaria faberi (SETFA) [3]; [15]) [%] | pest or weed control at 1000 g/ha [4, 16] [%] | pest or weed control at 1000 g/ha (Solanum nigrum (SOLNI) [5]; [17]) [%] | pest or weed control at 1000 g/ha [6, 18] [%] | pest or weed control at 1000 g/ha [7, 19] [%] | pest or weed control at 1000 g/ha [8, 20] [%] | pest or weed control at 1000 g/ha (Setaria faberi (SETFA) [9]; [21]) [%] | pest or weed control at 1000 g/ha [10, 22] [%] | pest or weed control at 1000 g/ha (Solanum nigrum (SOLNI) [11]; [23]) [%] | pest or weed control at 1000 g/ha [12, 24] [%] | also measured
1 | COC(=O)c1nc(C2CC2)nc(NCc2cccc(OC)c2OC)c1Cl [Compound 4-109, 5-Chloro-2-cyclopropyl-4-(2,3-dimethoxyphenyl-methylamino)-6-methoxycarbonyl-pyrimidine] | 100 | 100 | 80 | 60 | 90 | 20 | 70 | 80 | 30 | 30 | 50 | 20 | –
2 | COC(=O)c1nc(C2CC2)nc(NCC(O)c2ccc(O)cc2)c1Cl (stereo not drawn) [Compound 4-259, 5-Chloro-2-cyclopropyl-4-[2-hydroxy-2-(4-hydroxyphenyl)-ethylamino]-6-methoxycarbonyl-pyrimidine] | 100 | 70 | 80 | 30 | 80 | 20 | 100 | 100 | 30 | 30 | 90 | 10 | –
3 | COC(=O)c1nc(C2CC2)nc(NC(C)CC2CCCC2)c1Cl (stereo not drawn) [Compound 4-230, 5-Chloro-4-(2-cyclopentyl-1-methyl-ethylamino)-2-cyclopropyl-6-methoxycarbonyl-pyrimidine] | 40 | 40 | 0 | 0 | 40 | 0 | 10 | 40 | 0 | 0 | 0 | 0 | –
4 | COC(=O)c1nc(C2CC2)nc(N[C@H](CO)c2ccccc2)c1Cl [4-203 (S), 5-Chloro-2-cyclopropyl-4-[(1S)-2-hydroxy-1-phenyl-ethylamino]-6-methoxycarbonyl-pyrimidine] | 100 | 70 | 50 | 30 | 80 | 30 | 70 | 80 | 40 | 20 | 80 | 20 | –
5 | CCCN(Cc1ccc(C)cc1)c1nc(C2CC2)nc(C(=O)OC)c1Cl [Compound 145-73, 5-Chloro-2-cyclopropyl-6-methoxycarbonyl-4-[N-(4-methyl-phenylmethyl)-N-prop-1-yl-amino]-pyrimidine] | – | – | – | – | – | – | – | – | – | – | – | – | pest or weed control at 1000 g/ha ([1]; Rate 1,000 g/ha, post-emergence spray, evaluated after 13 days (100=total damage to plant; 0=no damage to plant), read-out: Percentage damage caused to weed species, post-emergence, AMARE): 80%; pest or weed control at 1000 g/ha ([2]; Rate 1,000 g/ha, post-emergence spray, evaluated after 13 days (100=total damage to plant; 0=no damage to plant), read-out: Percentage damage caused to weed species, post-emergence, IPOHE): 70%; pest or weed control at 1000 g/ha (Setaria faberi (SETFA) [3]; Rate 1,000 g/ha, post-emergence spray, evaluated after 13 days (100=total damage to plant; 0=no damage to plant), read-out: Percentage damage caused to weed species, post-emergence, SETFA): 40%; pest or weed control at 1000 g/ha ([4]; Rate 1,000 g/ha, post-emergence spray, evaluated after 13 days (100=total damage to plant; 0=no damage to plant), read-out: Percentage damage caused to weed species, post-emergence, ECHCG): 20%; pest or weed control at 1000 g/ha (Solanum nigrum (SOLNI) [5]; Rate 1,000 g/ha, post-emergence spray, evaluated after 13 days (100=total damage to plant; 0=no damage to plant), read-out: Percentage damage caused to weed species, post-emergence, SOLNI): 50%; pest or weed control at 1000 g/ha ([6]; Rate 1,000 g/ha, post-emergence spray, evaluated after 13 days (100=total damage to plant; 0=no damage to plant), read-out: Percentage damage caused to weed species, post-emergence, ALOMY): 10%; pest or weed control at 1000 g/ha ([7]; pre-emergence, rate 1,000 g/ha, evaluated after 13 days (100=total damage to plant; 0=no damage), read-out: Percentage damage caused to weed species, AMARE): 100%; pest or weed control at 1000 g/ha ([8]; pre-emergence, rate 1,000 g/ha, evaluated after 13 days (100=total damage to plant; 0=no damage), read-out: Percentage damage caused to weed species, IPOHE): 20%; pest or weed control at 1000 g/ha (Setaria faberi (SETFA) [9]; pre-emergence, rate 1,000 g/ha, evaluated after 13 days (100=total damage to plant; 0=no damage), read-out: Percentage damage caused to weed species, SETFA): 20%; pest or weed control at 1000 g/ha ([10]; pre-emergence, rate 1,000 g/ha, evaluated after 13 days (100=total damage to plant; 0=no damage), read-out: Percentage damage caused to weed species, ECHCG): 30%; pest or weed control at 1000 g/ha (Solanum nigrum (SOLNI) [11]; pre-emergence, rate 1,000 g/ha, evaluated after 13 days (100=total damage to plant; 0=no damage), read-out: Percentage damage caused to weed species, SOLNI): 70%; pest or weed control at 1000 g/ha ([12]; pre-emergence, rate 1,000 g/ha, evaluated after 13 days (100=total damage to plant; 0=no damage), read-out: Percentage damage caused to weed species, ALOMY): 30%
6 | COC(=O)c1nc(C2CC2)nc(NCCC2OCCO2)c1Cl [Compound 4-216, 5-Chloro-2-cyclopropyl-4-[2-(1,3-dioxolan-2-yl)ethylamino]-6-methoxycarbonyl-pyrimidine] | 100 | 80 | 60 | 20 | 70 | 20 | 100 | 100 | 40 | 40 | 90 | 30 | –
7 | COC(=O)c1nc(C2CC2)nc(N[C@H](c2ccccc2)[C@@H](O)c2ccccc2)c1Cl [4-280 (1R,2S), 5-Chloro-2-cyclopropyl-4-[(1R, 2S)-1,2-diphenyl-2-hydroxy-ethyl-amino]-6-methoxy-carbonylpyrimidine] | 100 | 70 | 70 | 50 | 80 | 40 | 60 | 90 | 10 | 20 | 80 | 10 | –
8 | COC(=O)c1nc(C2CC2)nc(NCC(F)c2ccc(Br)cc2F)c1Cl (stereo not drawn) [Compound 4-240, 4-[2-(4-Bromo-2-fluorophenyl)-2-fluoro-ethylamino]-5-chloro-2-cyclopropyl-6-methoxycarbonyl-pyrimidine] | 100 | 60 | 30 | 0 | 70 | 10 | 30 | 0 | 0 | 0 | 10 | 0 | –
9 | COC(=O)c1nc(C2CC2)nc(NC(Cc2ccccc2)C(=O)OC)c1Cl (stereo not drawn) [Compound 4-283, 5-Chloro-2-cyclopropyl-6-methoxycarbonyl-4-(1-methoxy-carbonyl-2-phenylethylamino)-pyrimidine] | 100 | 70 | 60 | 60 | 80 | 20 | 100 | 100 | 80 | 70 | 100 | 40 | –
